Laboratory results: ChEMBL document CHEMBL4765225, “A peptide inhibitor of antibody-dependent cell-mediated cytotoxicity against EGFR/folate receptor-alpha double positive cells” (Medchemcomm, 2018)
The source made the active and inactive calls. No cut-off for these calls is given here.

Assays:
[1] = Inhibition of antibody-dependent cell-mediated cytotoxicity in human IGROV1 cells incubated for 10 mins followed by addition of KHYG-1/FC-gamma-3A-158V by LDH assay; format: functional, cell-based; details: IGROV-1, 10 min
IGROV-1 [2] = test: Induction of CD20 antibody recruitment on human IGROV1 cell surface by flow cytometry analysis; format: functional, tissue-based
IGROV-1 [3] = test: Induction of CD20 antibody accumulation on human IGROV1 cell surface assessed as ternary complex formation in presence of excess folate by fluorescence microscopy; format: functional, tissue-based
IGROV-1 [4] = test: Induction of EGFR antibody accumulation on human IGROV1 cell surface assessed as ternary complex formation by fluorescence microscopy; format: functional
IGROV-1 [5] = test: Induction of EGFR antibody accumulation on human IGROV1 cell surface assessed as ternary complex formation in presence of excess folate by fluorescence microscopy; format: functional, tissue-based
A549 = test: Induction of EGFR antibody accumulation on human A549 cell surface assessed as ternary complex formation by fluorescence microscopy; format: functional, tissue-based
IGROV-1 [6] = test: Induction of CD20 antibody recruitment on human IGROV1 cell surface assessed as ternary complex formation by fluorescence microscopy; format: functional
IGROV-1 [7] = test: Induction of CD20 antibody accumulation on human IGROV1 cell surface assessed as ternary complex formation by fluorescence microscopy; format: functional

CC(C)C[C@@H]1NC(=O)[C@H](Cc2c[nH]cn2)NC(=O)[C@H](Cc2c[nH]c3ccccc23)NC(=O)[C@H](C)NC(=O)[C@@H](NC(=O)[C@H](CC(=O)O)NC(=O)CCOCCOCCOCCOCCOCCOCCNC(=O)CCC(NC(=O)c2ccc(NCc3cnc4[nH]c(N)nc(=O)c4n3)cc2)C(=O)O)CSSC[C@@H](C(=O)N[C@H](C(N)=O)[C@@H](C)O)NC(=O)[C@H](Cc2c[nH]c3ccccc23)NC(=O)[C@H](C(C)C)NC(=O)[C@H](CC(C)C)NC(=O)[C@H](CCC(=O)O)NC(=O)CNC1=O (some centres undefined)
IC50 [1]: 0.4 nM
Activity (IGROV-1 [2]): Active
Activity (IGROV-1 [3]): inactive
Activity (IGROV-1 [4]): Active
Activity (IGROV-1 [5]): inactive
Activity (A549): inactive

CC(C)C[C@@H]1NC(=O)[C@H](Cc2c[nH]cn2)NC(=O)[C@H](Cc2c[nH]c3ccccc23)NC(=O)[C@H](C)NC(=O)[C@@H](NC(=O)[C@H](CC(=O)O)NC(=O)CCOCCOCCOCCOCCOCCOCCNC(=O)C(CCCCNC(=O)c2ccc(-c3c4ccc(=[N+](C)C)cc-4oc4cc(N(C)C)ccc34)c(C(=O)[O-])c2)NC(=O)CCC(NC(=O)c2ccc(NCc3cnc4[nH]c(N)nc(=O)c4n3)cc2)C(=O)O)CSSC[C@@H](C(=O)N[C@H](C(N)=O)[C@@H](C)O)NC(=O)[C@H](Cc2c[nH]c3ccccc23)NC(=O)[C@H](C(C)C)NC(=O)[C@H](CC(C)C)NC(=O)[C@H](CCC(=O)O)NC(=O)CNC1=O (some centres undefined)
Activity (IGROV-1 [6]): Active
Activity (IGROV-1 [7]): Active
Activity (A549): inactive
